Data published in ChEMBL document CHEMBL4888484, “Replenishing the malaria drug discovery pipeline: Screening and hit evaluation of the MMV Hit Generation Library 1 (HGL1) against asexual blood stage Plasmodium falciparum ,using a nano luciferase reporter read-out” (2022).

Assays:
Plasmodium falciparum [1] = assay: Hit confirmation in dose-response curve in NF54 nanoGlo assay, at 72h; format: functional, organism-based, Erythrocyte; design: timepoint 72 hour; conditions: Plasmodium falciparum, NF54, Erythrocyte, 72 h
[2] = Hit confirmation in dose-response curve in HepG2 cytotoxicity assay, at 72h; format: toxicity, cell-based; design: timepoint 72 hour; conditions: human, HepG2 cells
Plasmodium falciparum [3] = assay: Hit confirmation in dose-response curve in NF54 nanoGlo assay, at 12h; format: functional, organism-based, Erythrocyte; design: timepoint 12 hour; conditions: Plasmodium falciparum, NF54, Erythrocyte, 12 h
Plasmodium falciparum [4] = assay: Hit confirmation in dose-response curve in Dd2 pLDH assay, at 72h; format: functional, organism-based; design: timepoint 72 hour; conditions: Dd2, Erythrocyte
Plasmodium falciparum [5] = assay: Hit confirmation in dose-response curve in NF54 pLDH assay, at 72h; format: functional, organism-based; design: timepoint 72 hour; conditions: NF54, Erythrocyte

Row | Compound | IC50 (Plasmodium falciparum [1]) [µM] | IC50 at 72 h [2] [µM] | IC50 (Plasmodium falciparum [3]) [µM] | IC50 (Plasmodium falciparum [4]) [µM] | IC50 (Plasmodium falciparum [5]) [µM]
1 | c1coc(CNc2nc(Nc3cccc4ccccc34)nc3ccccc23)c1 | 2.82 | > 10 | 5.75 | 5.01 | 7.94
2 | O=C(Nc1nncs1)c1cccc(C(=O)Nc2nncs2)n1 | 1.95 | > 10 | > 10 | 3.31 | 3.24
3 | CC(N=C1NC(=NC(C)c2ccccc2)c2ccccc21)c1ccccc1 (stereo not given) | 2.45 | > 10 | 4.9 | 4.17 | 5.01
4 | CC1CCN(Cc2ccc(CNCc3c[nH]nc3-c3ccc(F)cc3)cc2)CC1 | 3.47 | > 10 | 7.94 | 3.55 | 6.61
5 | CCc1c(C)nn2c(c1C)c(-c1ccccc1)[n+]1c(C)c(CC)c(C)nc21 | 1.7 | > 10 | > 10 | 1.48 | 2.19
6 | COc1ccc(-c2nn3c(N4CCN(CC=Cc5ccccc5)CC4)cc(C)nc3c2C)cc1OC | 1.74 | > 10 | 3.89 | 5.37 | 7.76
7 | NC(=O)c1ccccc1NC(=O)C1CCN(c2cc(C3CC3)ncn2)CC1 | 2.04 | > 10 | 2.4 | 6.31 | 8.32
8 | O=C(Nc1cnc(-n2ccnc2)nc1)C(c1ccccc1)c1ccccc1 | 2.45 | > 10 | 7.94 | 5.25 | 3.98
9 | O=C(N[C@@H](Cn1nccn1)c1ccccc1)c1cc(Br)ccc1Cl | 1.74 | > 10 | > 10 | 2.95 | 2.75
10 | Cc1nn(C(C)(C)C)c2nc(C3CC3)cc(C(=O)N(C)c3ccccc3)c12 | 1.86 | > 10 | > 10 | 1.66 | 2.34
11 | Cc1c(C)c2ccc(NC(=O)c3cc4ccccc4o3)cc2[nH]c1=O | 1.66 | > 10 | 3.47 | 3.24 | 8.13
12 | CC(C)N1C(=O)NC(=O)C2(Cc3ccccc3N3CCN(Cc4ccccc4)CC32)C1=O (stereo not given) | 3.98 | > 10 | > 10 | > 10 | > 10
13 | CC(C)c1cc(=O)[nH]c(-n2nc(C3CC3)cc2NC(=O)Cc2ccc(Cl)cc2)n1 | 1.91 | > 10 | > 10 | 3.89 | 7.76
14 | COc1cc(F)c([C@H](C)NC(=O)N(C)Cc2ccco2)cc1OC | 1.86 | > 10 | 0.891 | 10.7 | > 10
15 | O=C(Nc1c(S(=O)(=O)c2ccccc2)c2nc3ccccc3nc2n1CCc1ccccc1)c1ccc(Cl)cc1 | 1.1 | > 10 | 0.603 | 5.62 | 11.2
16 | O=C(c1cc2ccccc2[nH]1)N1CCc2sc(Cl)cc2C1 | 7.76 | > 10 | 2.95 | > 10 | > 10
17 | CC(C)C(NC(=O)COc1ccccc1)C(=O)NCC(c1ccccc1Cl)c1c[nH]c2ccccc12 (stereo not given) | 2.4 | > 10 | 3.39 | 7.76 | 9.12
18 | COc1cc2c(cc1OC)[C@@H](NC(=O)c1cnc(C3(C)OCCO3)s1)CCCC2 | 2.04 | > 10 | 4.79 | 4.79 | 7.41
19 | CCn1cc(C#N)c(=O)c2cc(F)c(N3CCN(Cc4ccccc4)CC3)cc21 | > 10 | > 10 | > 10 | > 10 | > 10

Row | Compound | IC50 (Plasmodium falciparum [1]) [µM] | IC50 at 72 h [2] [µM] | IC50 (Plasmodium falciparum [3]) [µM] | IC50 (Plasmodium falciparum [4]) [µM] | IC50 (Plasmodium falciparum [5]) [µM]
20 | COc1cccc2c(=O)c3c([nH]c12)CCN(CC(=O)NCc1ccccc1Cl)C3 | 9.77 | > 10 | > 10 | 9.12 | 10
21 | Oc1c([C@@H](c2ccccn2)N2CCCC2)ccc2cccnc12 | 2.14 | > 10 | 3.55 | 2.34 | 7.76
22 | CCC(=O)N(Cc1ccc(-c2ccc(Cl)cc2)o1)[C@H]1CCS(=O)(=O)C1 | 1.66 | > 10 | 3.39 | 2.95 | 5.13
23 | COc1ccccc1N(Cc1ccccc1)C1=NC(=[N+](Cc2ccccc2)c2ccccc2OC)c2ccccc21 | 2.82 | > 10 | 4.68 | 5.5 | 6.03
24 | CCNC(=O)N1CC[C@H](Oc2ccc3ccccc3n2)C1 | 2.69 | > 10 | > 10 | 3.72 | 7.41
25 | CCc1ccc(NC(=O)[C@H](C)N2CCC(NS(=O)(=O)c3cccs3)CC2)cc1 | 1.15 | > 10 | 4.79 | 2.29 | 4.17
26 | O=C(CCc1ccc(Cl)c(C(F)(F)F)c1)N1CC[C@H](N2CCc3ccccc3C2)C1 | 5.5 | > 10 | > 10 | 8.32 | 5.62
27 | Cc1cc(Br)cc(N[C@H](c2cccnc2)c2ncc[nH]2)c1 | 3.39 | > 10 | 1.48 | > 10 | > 10
28 | COc1cc(C(=O)Nc2ccc3sc(NC(=O)c4cc(OC)c(OC)c(OC)c4)nc3n2)cc(OC)c1OC | 0.263 | > 10 | 1.15 | 2.95 | 2.95
29 | O=C(Nc1ccc(Cl)c(Cl)c1)Nc1ccc(Cl)cc1NC(=O)Nc1ccc(Cl)c(Cl)c1 | 2.04 | > 10 | 3.31 | 4.47 | 6.92
30 | O=C(Nc1ccccc1Cl)N1CCC(N2CCc3sccc3C2)CC1 | 3.72 | > 10 | > 10 | 4.57 | 3.55
31 | O=S(=O)(c1ccc(Cl)s1)N1CCC(N2CCc3sccc3C2)CC1 | 3.47 | > 10 | > 10 | 5.62 | 1.12
32 | O=C(Nc1ccccc1)Nc1cnc(-n2ccnc2)nc1 | 2.63 | > 10 | 4.68 | 5.5 | 3.55
33 | O=C(c1ccccc1)c1ccc(O)c(CN2CCCN(c3ccc(C(F)(F)F)cn3)CC2)c1O | 1.82 | > 10 | 2.82 | 3.09 | 3.72
34 | O=S(=O)(c1ccc(F)c(Cl)c1)N1CC[C@H](Oc2ccncc2Cl)C1 | 1.86 | > 10 | 3.24 | 2.69 | 7.59
35 | CCc1ccc(C(=O)Nc2cnc(-n3ccnc3)nc2)cc1 | 5.01 | > 10 | > 10 | 6.31 | 3.55
36 | Fc1cnc(OC2Cc3ccccc3C2)nc1 | 1.86 | > 10 | > 10 | > 10 | 3.24
37 | CCc1cc(=O)[nH]c(-n2nc(C3CC3)cc2NC(=O)C2CCCCC2)n1 | 1.26 | > 10 | > 10 | 3.24 | 4.07
